We go through 23 compounds from patent US20160046597A1, “RORC2 INHIBITORS AND METHODS OF USE THEREOF” (PFIZER INC., priority 2013, published 2016).

For this assay, the target named is T1, RORC2 ligand binding domain (6-His-RORC2 LBD) (Homo sapiens, UniProt P51449).
T1 construct: made in house; host or cells: E. coli
T1 sequence (P51449 269-508 limits assumed): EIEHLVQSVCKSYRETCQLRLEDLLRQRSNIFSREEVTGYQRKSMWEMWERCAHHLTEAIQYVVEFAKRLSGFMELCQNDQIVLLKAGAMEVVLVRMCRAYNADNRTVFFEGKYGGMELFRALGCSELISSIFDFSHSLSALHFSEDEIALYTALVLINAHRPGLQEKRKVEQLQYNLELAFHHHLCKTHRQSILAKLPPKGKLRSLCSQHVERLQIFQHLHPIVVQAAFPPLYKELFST
Put plainly: Co-activator recruitment by TR-FRET (RORC2 FRET). The following applies: 6.3 nM RORC2 LBD, 200 nM SRC1-2 coactivator peptide, 3 hours room temperature. It counts as biochemical. The text has this:
The activity of compound of the invention can be determined by a co-activator recruitment by TR-FRET (time-resolved fluorescence resonance energy transfer) assay. […] Due to the long lasting fluorescence emission of Europium, the non-specific, short-lived fluorescence is time-resolved (TR) from the fluorescence of interest. Inhibitors of the interaction of receptor and coactivator peptide are detected by a decrease in TR-FRET signal.
Specifically, in one embodiment the aforementioned assay was performed as outlined below. The assay was carried out in black polystyrene, 384-well plates in a total assay volume of 50.5 μL. The assay buffer contained 50 mM TRIS-HCL pH 7.5, 1 mM NaCl, 2 mM MgCl2, 0.5 mg/mL bovine serum albumin, and 5 mM dithiothreitol.
Background: Time-resolved FRET reads energy transfer from a long-lived donor to a nearby acceptor.
In turn, `Cn1cc(C2CCN(C(=O)[C@H]3CCC[C@H]3O)CC2)c2cc(NC(=O)c3cc(C#N)ccn3)ccc21` (relative stereo) [Example 13, 4-cyano-N-[3-(1-{[(1S*,2R*)-2-hydroxycyclopentyl]carbonyl}piperidin-4-yl)-1-methyl-1 2-carboxamide] returned an IC50 of 19.8 nM. That is a double-digit nanomolar value.
`CC(C)CC(=O)N1CCC(c2cn(C)c3ccc(NC(=O)c4cccc(C#N)c4)cc23)CC1` [Example 2, 3-cyano-N-(1-methyl-3-(1-(3-methylbutanoyl)piperidin-4-yl)-1H-indol-5-yl)benzamide] showed an IC50 of 17.9 nM.
The compound `CC[C@H](C)[C@H](O)C(=O)N1CCC(c2cn(C)c3ccc(NC(=O)c4cccc(C#N)c4)cc23)CC1` [Example 3, 3-cyano-N-(3-(1-((2S,3S)-2-hydroxy-3-methylpentanoyl)piperidin-4-yl)-1-methyl-1H-indol-5-yl)benzamide] had an IC50 of 387 nM. This IC50 is about 22-fold higher than that of the compound before.
Take `CC(C)C[C@H](O)C(=O)N1CCC(c2cn(C)c3ccc(NC(=O)c4cccc(C#N)c4)cc23)CC1` [Example 4, 3-cyano-N-(3-(1-((2S)-2-hydroxy-4-methylpentanoyl)piperidin-4-yl)-1-methyl-1H-indol-5-yl)benzamide]: the IC50 worked out at 590 nM.
The same measure for `Cn1cc(C2CCN(C(=O)[C@H]3CC[C@@H](O)CC3)CC2)c2cc(NC(=O)c3cccc(C#N)c3)ccc21` [Example 5, 3-cyano-N-(3-{1-[(cis-4-hydroxycyclohexyl)carbonyl]piperidin-4-yl}-1-methyl-1H-indol-5-yl)benzamide]: 106 nM; for `Cn1cc(C2CCN(C(=O)C3CCC(F)(F)C3)CC2)c2cc(NC(=O)c3cc(C#N)ccn3)ccc21` (centres unmarked) [Example 8, 4-cyano-N-(3-{1-[(3,3-difluorocyclopentyl)carbonyl]piperidin-4-yl}-1-methyl-1H-indol-5-yl)pyridine-2-carboxamide]: 7.3 nM; for `Cn1cc(C2CCN(C(=O)C3CC(F)(F)C3)CC2)c2cc(NC(=O)c3cc(C#N)ccn3)ccc21` [Example 9, 4-cyano-N-(3-{1-[(3,3-difluorocyclobutyl)carbonyl]piperidin-4-yl}-1-methyl-1H-indol-5-yl)pyridine-2-carboxamide]: 8.7 nM.
Compound `Cc1cc(C(=O)N2CCC(c3cn(C)c4ccc(NC(=O)c5cc(C#N)ccn5)cc34)CC2)no1` [Example 10, 4-cyano-N-(1-methyl-3-{1-[(5-methylisoxazol-3-yl)carbonyl]piperidin-4-yl}-1H-indol-5-yl)pyridine-2-carboxamide] displayed an IC50 of 42.9 nM.
The compound `Cn1nccc1C(=O)N1CCC(c2cn(C)c3ccc(NC(=O)c4cc(C#N)ccn4)cc23)CC1` [Example 11, 4-cyano-N-(1-methyl-3-{1-[(1-methyl-1H-pyrazol-5-yl)carbonyl]piperidin-4-yl}-1H-indol-5-yl)pyridine-2-carboxamide] came in with an IC50 of 34.6 nM.
As to `Cn1cc(C2CCN(C(=O)CC3CCOCC3)CC2)c2cc(NC(=O)c3cc(C#N)ccn3)ccc21` [Example 12, 4-cyano-N-{1-methyl-3-[1-(tetrahydro-2H-pyran-4-ylacetyl)piperidin-4-yl]-1H-indol-5-yl}pyridine-2-carboxamide], the IC50 worked out at 24.3 nM.
Compound `Cn1cc(C2CCN(C(=O)C3CCCOC3)CC2)c2cc(NC(=O)c3cc(C#N)ccn3)ccc21` (centres unmarked) [Example 15, 4-cyano-N-{1-methyl-3-[1-(tetrahydro-2H-pyran-3-ylcarbonyl)piperidin-4-yl]-1H-indol-5-yl}pyridine-2-carboxamide] showed an IC50 of 15.9 nM.
Consider `CNc1ncccc1C(=O)N1CCC(c2cn(C)c3ccc(NC(=O)c4cc(C#N)ccn4)cc23)CC1` [Example 16, 4-cyano-N-[1-methyl-3-(1-{[2-(methylamino)pyridin-3-yl]carbonyl}piperidin-4-yl)-1H-indol-5-yl]pyridine-2-carboxamide], for which the IC50 came to 132 nM. Compared with the last compound, the IC50 is about 8.3-fold higher.
Then `Cn1cc(C2CCN(C(=O)c3cscn3)CC2)c2cc(NC(=O)c3cc(C#N)ccn3)ccc21` [Example 18, 4-cyano-N-{1-methyl-3-[1-(1,3-thiazol-4-ylcarbonyl)piperidin-4-yl]-1H-indol-5-yl}pyridine-2-carboxamide], with 26.1 nM; and `Cn1cc(C2CCN(C(=O)C3CCOCC3)CC2)c2cc(NC(=O)c3cc(C#N)ccn3)ccc21` [Example 19, 4-cyano-N-{1-methyl-3-[1-(tetrahydro-2H-pyran-4-ylcarbonyl)piperidin-4-yl]-1H-indol-5-yl}pyridine-2-carboxamide], with 40.6 nM.
Then `Cn1cc(C2CCN(C(=O)c3ccncn3)CC2)c2cc(NC(=O)c3cc(C#N)ccn3)ccc21` [Example 20, 4-cyano-N-{1-methyl-3-[1-(pyrimidin-4-ylcarbonyl)piperidin-4-yl]-1H-indol-5-yl}pyridine-2-carboxamide], with 246 nM.
The same measure for `Cn1cc(C2CCN(C(=O)c3cccc(O)n3)CC2)c2cc(NC(=O)c3cc(C#N)ccn3)ccc21` [Example 21, 4-cyano-N-(3-{1-[(6-hydroxypyridin-2-yl)carbonyl]piperidin-4-yl}-1-methyl-1H-indol-5-yl)pyridine-2-carboxamide]: 1440 nM.
The compound `Cn1cc(C2CCN(C(=O)C(C)(C)CO)CC2)c2cc(NC(=O)c3cc(C#N)ccn3)ccc21` [Example 22, 4-cyano-N-{3-[1-(3-hydroxy-2,2-dimethylpropanoyl)piperidin-4-yl]-1-methyl-1H-indol-5-yl}pyridine-2-carboxamide] showed an IC50 of 384 nM.
The same measure for `Cn1cc(C2CCN(C(=O)C(O)C(F)(F)F)CC2)c2cc(NC(=O)c3cc(C#N)ccn3)ccc21` (centres unmarked) [Example 23, 4-cyano-N-{1-methyl-3-[1-(3,3,3-trifluoro-2-hydroxypropanoyl)piperidin-4-yl]-1H-indol-5-yl}pyridine-2-carboxamide]: 334 nM; for `Cn1cc(C2CCN(C(=O)c3ncccn3)CC2)c2cc(NC(=O)c3cc(C#N)ccn3)ccc21` [Example 24, 4-cyano-N-{1-methyl-3-[1-(pyrimidin-2-ylcarbonyl)piperidin-4-yl]-1H-indol-5-yl}pyridine-2-carboxamide]: 246 nM.
On to `Cn1cc(C2CCN(C(=O)C3CCCO3)CC2)c2cc(NC(=O)c3cc(C#N)ccn3)ccc21` (centres unmarked) [Example 25, 4-cyano-N-{1-methyl-3-[1-(tetrahydrofuran-2-ylcarbonyl)piperidin-4-yl]-1H-indol-5-yl}pyridine-2-carboxamide], for which the IC50 was 31.6 nM.
With `Cn1cc(C2CCN(C(=O)c3cnccn3)CC2)c2cc(NC(=O)c3cc(C#N)ccn3)ccc21` [Example 26, 4-cyano-N-{1-methyl-3-[1-(pyrazin-2-ylcarbonyl)piperidin-4-yl]-1H-indol-5-yl}pyridine-2-carboxamide], the IC50 amounted to 87 nM.
The same measure for `Cn1cc(C2CCN(C(=O)[C@H]3CC[C@H](O)CC3)CC2)c2cc(NC(=O)c3cc(C#N)ccn3)ccc21` [Example 27, 4-cyano-N-(3-{1-[(trans-4-hydroxycyclohexyl)carbonyl]piperidin-4-yl}-1-methyl-1H-indol-5-yl)pyridine-2-carboxamide]: 1420 nM; for `CC(C)C(O)C(=O)N1CCC(c2cn(C)c3ccc(NC(=O)c4cc(C#N)ccn4)cc23)CC1` (centres unmarked) [Example 28, 4-cyano-N-{3-[1-(2-hydroxy-3-methylbutanoyl)piperidin-4-yl]-1-methyl-1H-indol-5-yl}pyridine-2-carboxamide]: 88.1 nM.

One may read the IC50 as the point on the concentration scale where inhibition reaches its midpoint. Read a high IC50 as a need for much substance.
